Measurements from US20240059703A1 (AMGEN INC., priority 2021, published 2024).

Assays:
[1] = tested on: MIA PaCa-2 (human pancreatic carcinoma) cells; assay: Cell Viability Assay (CellTiter-Glo), MIA PaCa-2; type: cell-based
Description: (§1) Serially-diluted compound or DMSO was added to the cells, and plates were incubated at 37° C., 5% CO2 for 72 h. Cell viability was measured using a CellTiter-Glo® Luminescent Cell Viability Assay kit (Promega) according to the manufacturer's protocol. The luminescence signal of treated samples was normalized to DMSO control, and data were analyzed using a 4-parameter logistic model to calculate IC50 values.

[2] = tested on: A549 (human lung carcinoma) cells; assay: Cell Viability Assay (CellTiter-Glo), A549; type: cell-based; details: Homo sapiens, A549, 72 h
Description: as §1, with “MIA PaCa-2 (human pancreatic carcinoma; ATCC CRL-1420) or A549 (human lung carcinoma; ATCC CCL-185) cells were cultured in RPMI 1640 medium containing 10% fetal bovine serum and 1× penicillin/streptomycin/L-glutamine. Cells were seeded in 384-well plates at a density of 1.67E+04 cells/mL and incubated at 37° C., 5% CO2, overnight. Serially-diluted” for “Serially-diluted”

KRAS G12C = KRAS G12C (Homo sapiens (Human), UniProt P01116, C118A/G12C); assay: 2 h coupled exchange assay; type: biochemical; details: Avg 2 h Coupled exchange IC50, 2 h compound pre-incubation
Sequence of KRAS G12C (P01116 other isoform, or with tags, fused parts or gaps G12C/C118A): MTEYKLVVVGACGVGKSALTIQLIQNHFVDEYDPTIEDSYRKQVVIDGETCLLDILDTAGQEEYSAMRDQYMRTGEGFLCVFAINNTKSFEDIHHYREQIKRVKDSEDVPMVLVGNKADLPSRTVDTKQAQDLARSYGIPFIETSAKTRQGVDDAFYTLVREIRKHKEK
Description: The term “2 h coupled exchange assay” or “20 h coupled exchange assay” as used herein refers to the assay described in the Section entitled “BIOLOGICAL EVALUATION.”

[3] = SOS-mediated nucleotide exchange

Row | Structure (SMILES) | IC50 ([1]; Homo sapiens, MIA PaCa-2, 72 h) [nM] | IC50 [2] [nM] | IC50 (KRAS G12C) [nM] | IC50 (KRAS G12C; [3]) [nM] | IC50 ([1]; 72 h) [nM]
1 | C=CC(=O)N1CC2(CCN(c3nc4cc(-c5scnc5C)cnc4c(-c4ccc(F)cc4)c3C#N)C2)C1 [Example 19-8, 4-(4-fluorophenyl)-7-(4-methyl-1,3-thiazol-5-yl)-2-(2-(2-propenoyl)-2,6-diazaspiro[3.4]octan-6-yl)-1,5-naphthyridine-3-carbonitrile] | 320 | 11200 | 280 | – | –
2 | C=CC(=O)N1CC2(CCN(c3nc4c(c(-c5cc(O)cc6cccnc56)c3C#N)C[C@H]3C[C@@H]4C3(C)C)C2)C1 (single isomer, unassigned) [Example 2-45] | > 5000 | > 5000 | – | 77 | –
3 | C=CC(=O)N1CC2(CCN(c3nc4c(c(-c5ccccc5Cl)c3C#N)CCN(c3scnc3C)C4)C2)C1 [Example 21-11] | 633 | 4410 | 33 | – | –
4 | C=CC(=O)N1CC2(CCN(c3nc4c(N5CCCC5)ccn4c(-c4c(C)ccc5[nH]ncc45)c3C#N)C2)C1 [Example 1-52] | 1890 | 39000 | – | 244 | –
5 | C=CC(=O)N1CC2(CCN(c3nc4c(c(-c5cccc6cn[nH]c56)c3C#N)C[C@H]3C[C@@H]4C3(C)C)C2)C1 [Example 14-25, (1R,9R)-6-(1H-indazol-7-yl)-10,10-dimethyl-4-(2-(2-propenoyl)-2,6-diazaspiro[3.4]octan-6-yl)-3-azatricyclo[7.1.1.0^2,7]undeca-2,4,6-triene-5-carbonitrile] | 669 | > 5000 | 110 | – | –
6 | C=CC(=O)N1CC2(CCN(c3nc4c(c(-c5ccccc5F)c3C#N)CC[C@@](C)(c3scnc3C)C4)C2)C1 [Example 23-13, (7R)-4-(2-fluorophenyl)-7-methyl-7-(4-methyl-1,3-thiazol-5-yl)-2-(2-(2-propenoyl)-2,6-diazaspiro[3.4]octan-6-yl)-5,6,7,8-tetrahydro-3-quinolinecarbonitrile] | 911 | > 5000 | 39 | – | –
7 | C=CC(=O)N1CC2(CCN(c3nc4c(c(-c5c(C)cc(F)c6[nH]ncc56)c3C#N)C[C@H]3C[C@@H]4C3(C)C)C2)C1 [Example 12-11, (1R,9R)-6-(7-fluoro-5-methyl-1H-indazol-4-yl)-10,10-dimethyl-4-(2-(2-propenoyl)-2,6-diazaspiro[3.4]octan-6-yl)-3-azatricyclo[7.1.1.0^2,7] undeca-2,4,6-triene-5-carbonitrile] | 20 | 3780 | – | 36 | –
8 | C=CC(=O)N1CC2(CCN(c3nc4c(c(-c5cc(O)ccc5F)c3C#N)CC3CCC4N3C(C)C)C2)C1 (stereo not drawn) [Example 21-8] | 5560 | > 25000 | 933 | – | –
9 | C=CC(=O)N1CC2(CCN(c3nc4c(c(-c5ccccc5Cl)c3C#N)CCN(c3scnc3C)C4)C2)C1 (single isomer, unassigned) [Example 21-22, (P)-4-(2-chlorophenyl)-7-(4-methyl-1,3-thiazol-5-yl)-2-(2-(2-propenoyl)-2,6-diazaspiro[3.4]octan-6-yl)-5,6,7,8-tetrahydro-1,7-naphthyridine-3-carbonitrile] | – | > 5000 | 34 | – | 170
10 | C=CC(=O)N1CC2(CCN(c3nc4c(c(-c5cccc6cc(O)ccc56)c3C)CCN(C3CC3)C4)C2)C1 [Example 18-17, 1-(6-(7-cyclopropropyl-4-(6-hydroxy-1-naphthalenyl)-3-methyl-5,6,7,8-tetrahydro-1,7-naphthyridin-2-yl)-2,6-diazaspiro[3.4]octan-2-yl)-2-propen-1-one] | 133 | > 5000 | 79 | – | –
11 | C=CC(=O)N1CC2(CCN(c3nc4cc(OC)ccc4c(-c4c(C)ccc5[nH]ncc45)c3C)C2)C1 [Example 2-48, 1-(6-(7-methoxy-3-methyl-4-(5-methyl-1H-indazol-4-yl)-2-quinolinyl)-2,6-diazaspiro[3,4]octan-2-yl)-2-propen-1-one] | 885 | > 5000 | – | 109 | –
12 | C=CC(=O)N1CC2(CCN(c3nc4c(c(-c5cccc6cc(O)ccc56)c3C)CCC(C)(C)C4)C2)C1 [Example 2-13, 1-(6-(4-(6-hydroxy-1-naphthalenyl)-3,7,7-trimethyl-5,6,7,8-tetrahydro-2-quinolinyl)-2,6-diazaspiro[3.4]octan-2-yl)-2-propen-1-one] | 403 | > 5000 | – | 150 | –
13 | C=CC(=O)N1CC2(CCN(c3nc4cc(-n5cncc5C)ccc4c(-c4ccccc4F)c3C#N)C2)C1 [Example 17-6, 4-(2-fluorophenyl)-7-(5-methyl-1H-imidazol-1-yl)-2-(2-(2-propenoyl)-2,6-diazaspiro[3.4]octan-6-yl)-3-quinolinecarbonitrile] | 2190 | 4370 | 149 | – | –
14 | C=CC(=O)N1CC2(CCN(c3nc4cc(OC)ccc4c(-c4c(C)ccc5[nH]ncc45)c3F)C2)C1 [Example 27-1, 1-(6-(3-fluoro-7-methoxy-4-(5-methyl-1H-indazol-4-yl)-2-quinolinyl)-2,6-diazaspiro[3.4]octan-2-yl)-2-propen-1-one] | 996 | > 5000 | 134 | – | –
15 | C=CC(=O)N1CC2(CCN(c3nc4c(c(-c5c(C)c(Cl)cc6[nH]ncc56)c3C)COC(C)(C)C4)C2)C1 [Example 2-36, 1-(6-(4-(6-chloro-5-methyl-1H-indazol-4-yl)-3,7,7-trimethyl-7,8-dihydro-5H-pyrano[4,3-b]pyridin-2-yl)-2,6-diazaspiro[3.4]octan-2-yl)-2-propen-1-one] | 13 | > 5000 | – | 20 | –
16 | C=CC(=O)N1CC2(CCN(c3nc4c(c(-c5cccc6cc(O)ccc56)c3C)CCC(C)(C)C4)C2)C1 (single isomer, unassigned) [Example 2-15, (P)-1-(6-(4-(6-hydroxy-1-naphthalenyl)-3,7,7-trimethyl-5,6,7,8-tetrahydro-2-quinolinyl)-2,6-diazaspiro[3.4]octan-2-yl)-2-propen-1-one] | 106 | > 5000 | – | 66 | –
17 | C=CC(=O)N1CC2(CCN(c3nc4c(c(-c5cc(O)ccc5C)c3C#N)C[C@H]3C[C@@H]4C3(C)C)C2)C1 (single isomer, unassigned) [Example 2-69] | 221 | > 5000 | – | 15 | –
18 | C=CC(=O)N1CC2(CCN(c3nc4cc(-c5ccnn5C)ccc4c(-c4c(C)ccc5[nH]ncc45)c3C#N)C2)C1 [Example 15-1, 4-(5-methyl-1H-indazol-4-yl)-7-(1-methyl-1H-pyrazol-5-yl)-2-(2-(2-propenoyl)-2,6-diazaspiro[3.4]octan-6-yl)-3-quinolinecarbonitrile] | 144 | 3310 | 31 | – | –
19 | C=CC(=O)N1CC2(CCN(c3nc4c(c(-c5c(C)ccc6cn[nH]c56)c3C#N)C[C@H]3C[C@@H]4C3(C)C)C2)C1 [Example 14-48, (1R,9R)-10,10-dimethyl-6-(6-methyl-1H-indazol-7-yl)-4-(2-(2-propenoyl)-2,6-diazaspiro[3.4]octan-6-yl)-3-azatricyclo[7.1.1.0^2,7]undeca-2,4,6-triene-5-carbonitrile] | 53 | > 5000 | 61 | – | –
20 | C#CC(=O)N1CC2(CCN(c3nc4c(F)cccc4c(-c4c(C)ccc5[nH]ncc45)c3C#N)C2)C1 [Example 1-14, 8-fluoro-4-(5-methyl-1H-indazol-4-yl)-2-(2-(2-propynoyl)-2,6-diazaspiro[3.4]octan-6-yl)-3-quinolinecarbonitrile] | 69 | 1090 | – | 327 | –
21 | C=CC(=O)N1CC2(CCN(c3nc4c(c(-c5cc(O)cc(C)c5Cl)c3C#N)COC(C)(C)C4)C2)C1 [Example 13-153, 4-(2-chloro-5-hydroxy-3-methylphenyl)-7,7-dimethyl-2-(2-(2-propenoyl)-2,6-diazaspiro[3.4]octan-6-yl)-7,8-dihydro-5H-pyrano[4,3-b]pyridine-3-carbonitrile] | 58 | > 5000 | – | 64 | –
22 | C=CC(=O)N1CC2(CCN(c3cc4c(c(-c5c(C)ccc6cnn(C)c56)c3C#N)COCC4)C2)C1 [Example 2-96, 8-(1,6-dimethyl-1H-indazol-7-yl)-6-(2-(2-propenoyl)-2,6-diazaspiro[3,4]octan-6-yl)-3,4-dihydro-1H-2-benzopyran-7-carbonitrile] | 246 | > 5000 | – | 232 | –
23 | C=CC(=O)N1CC2(CCN(c3nc4c(c(-c5c(C)c(C)cc6cnn(C)c56)c3C#N)CCC(C)(C)C4)C2)C1 [Example 13-89, 7,7-dimethyl-2-(2-(2-propenoyl)-2,6-diazaspiro[3.4]octan-6-yl)-4-(1,5,6-trimethyl-1H-indazol-7-yl)-5,6,7,8-tetrahydro-3-quinolinecarbonitrile] | 101 | > 5000 | – | 35 | –
